Experimental data taken from patent US9408828B2, “(+)-3′-angeloyloxy-4′-keto-3′,4′-dihydroseselin for treating inflammation” (Hong Kong Baptist University, priority 2014, dated 2016).

Tested on: DSS-induced colitis
Assay: Chronic DSS-induced colitis in mice (body weight, DAI, colon length, histology)
Assay type: in vivo, C57BL/6 mice
Conditions: sulfasalazine (positive control) 300 mg/kg/day for seven days
From the text: 6-week-old male C57BL/6 mice weighing 18-20 g are purchased from the Laboratory Animal Services Center, the Chinese University of Hong Kong. The study protocols are approved by the committee for Care of Laboratory Animals in the School of Chinese Medicine at the Hong Kong Baptist University. The animals are divided into six groups (8-10 each group): control group (mice received drinking water and control diet), DSS-treated group (mice received 2.0% DSS in drinking and control diet), positive control group (mice received 2.0% DSS in drinking and ip, 300 mg/kg/day of sulfasalazine), Pd-Ib treatment groups will be given different dosed of Pd-Ib (mice received 2.0% DSS in drinking and i.p., 30, 60, or 120 mg/kg/day, respectively). As depicted in experiment design shown in FIG. 9, the mice are given tap water for 6 days, and then be divided into 6 groups. DSS is dissolved in distilled water at a concentration of 2% (w/v) and administered to the mice. The first day and the last day of DSS treatment are designated as day 7 and day 11, respectively. Mice are marked and checked daily for body weight. On day 12, body weight, stool consistency, and gross bleeding of each mouse are assessed, and animals showing body weight loss, diarrhea, and bleeding are selected for further analysis. All colitis mice are then interventions once daily for seven days, with eight mice in each group. The DSS model group is administered with tap water as negative control; while sulfasalazine is given as positive control (i.p., 300 mg/kg/day) and Pd-Ib treatment groups are given different doses of Pd-Ib (i.p., 30, 60, or 120 mg/kg/day, respectively). In parallel, a vehicle control group is also set up to receive drinking tap water without DSS throughout the entire experimental period. On day 19, after the mice are killed under anesthesia induced by pentobarbital sodium (i.p., 0.65 g/kg), the length of the large intestine is measured. All portions are stored at −80° C. for biochemical assays. The DAI is determined by scoring changes in the body weight, diarrhea, colon length, and bleeding. In brief, body weight, stool consistency, colon length and bleeding in the stool are monitored daily for determination of DAI. At the end of the experiment, mice are killed, and the colon is dissected from each mouse, and the length of which is measured from the ileocecal junction to the anal verge. The colons are opened longitudinally, gently washed with ice-cold PBS, fixed in 4% paraformaldehyde overnight, and embedded in paraffin. Five-micro-meter sections are stained with hematoxylin/eosin according to a standard procedure to evaluate colonic damage. Colitis is induced in all groups except the control group. Pd-Ib and sulfasalazine are administered to mice from day 6 to day 12. The change in body weight is taken as the difference between the body weight before induction of colitis and that immediately before sacrifice on day 13. The DAI score is determined by combining scores of (i) body weight loss, (ii) stool consistency, and (iii) stool bleeding. On day 13, the mice are sacrificed, and the colon lengths are measured. Data are expressed as mean±SEM, n=8 (^###p<0.001, compared with the control group; *p<0.05, **p<0.01, ***p<0.001, compared with DSS model group).

SMILES: O=C(O)c1cc(/N=N/c2ccc(S(=O)(=O)Nc3ccccn3)cc2)ccc1O [sulfasalazine, Sulfasalazine, reference compound]
- histological manifestation of colon tissue sections: significantly decrease the damage of colon tissues
